Counter-ions that a name gives are not always drawn. Like-named read-outs stand apart in the source and are kept apart here. Each block holds one compound with its values, some of them ahead of it.
Assays:
S1P1 = target: T1, S1P1 (Homo sapiens, UniProt P21453); assay: In vitro agonistic activity on S1P1, U2OS-EDG1 cells, LiveBLAzer FRET B/G; type: cell-based; conditions: for Emax: % Effect
T1 construct: host or cells: U2OS
Protocol: Assay Example 1: In Vitro Evaluation of the Agonistic Activity of the Compounds of the Present Disclosure on S1P1
Object of the assay: To detect the agonistic activity of compounds on S1P1
• 1. Cells U2OS-EDG1 (Batch No.: Invitrogen-K1520) were taken out of a liquid nitrogen tank and placed in a 37° C. water bath to thaw quickly; • 2. The cell suspension was aspirated into a 15 ml centrifuge tube, resuspended in 5 ml of preheated medium, and centrifuged at 1000 rpm for 5 min; • 3. The supernatant was discarded. The cells were resuspended in 10 ml of medium, transferred into a T75 culture flask, and cultivated in an incubator with 5% CO2 at 37° C. II. Agonist Assay • 1. The compounds were diluted to working concentrations, and serially diluted 3-fold by Echo 555 (manufacturer: Labcyte) to obtain 10 concentrations; 200 nL of each concentration of the compound was transferred to a cell plate and centrifuged at 1000 rpm for 15 seconds; • 2. Culture medium was aspirated from the culture flask; 4 mL of Dulbecco's phosphate buffer (DPBS, supplier: Coring, item No.: 21-031-CVR, batch No.: 03318006) was added, and the residual serum was washed away; 2 mL of trypsin was added; The mixture was incubated in an incubator at 37° C. for 2 min, and the cells were digested; 10 mL of seeding medium was added to resuspend the cells; 0.6 mL of cell suspension was taken out and counted; • 3. The density of cells was adjusted to 1.88E+05 cells/mL using seeding medium, with 40 μL per well (7500\well); 40 μL of FreeStyle™ Expression medium was added around the cell plate; The plate was let stand at room temperature for 15 min and incubated at 37° C. with 5% CO2 for 20 hours. III. Signal Detection • 1. LiveBLAzer™-FRET B/G Substrate (CCF4-AM) assay reagents were formulated according to the instructions; • 2. 8 μL of 6×Substrate Mixture was added to each well of the cell plate; The plate was centrifuged at 1000 rpm for 15 seconds, covered with a film, and incubated at 23° C. for 2 hours; The cell plate was subjected to Envision […] detection. IV. Data Analysis • 1. The raw data were converted into % Effect by using an equation, and the EC50 value can be obtained by curve fitting with four parameters [“log(agonist) vs. response—Variable slope” model in GraphPad Prism]; • 2. Calculation formula: Ratio=(460 nm−blank)/(535 nm−blank) % Effect=(SampleRatio−Ave LCRatio)/(Ave HCRatio−Ave LCRatio)×100%

[1] = Pharmacokinetic evaluation in SD rats (iv and oral); type: in vivo, Sprague Dawley rats; conditions: male, Sprague-Dawley, rat, plasma; for half-life: read-out: Half life T1/2 (PO) (converted); for clearance: read-out: Clearance rate CL; for Vd: read-out: Distribution in tissue Vdss; for bioavailability: read-out: Bioavailability F; for Cmax: read-out: Peak concentration Cmax
Protocol: Assay Example 2: Pharmacokinetic Evaluation of Compounds in Rats
Object of the assay: To evaluate the in vivo pharmacokinetics of the compounds in SD rats
Sprague Dawley rats (male, 200-300 g, 7-9 weeks old, Shanghai SLAC)
The pharmacokinetic characteristics of the compounds in rodents after intravenous injection and oral administration were assayed according to the standard protocol. In the assay, the candidate compounds were formulated into clear solutions and administered to rats by single intravenous injection and oral administration. The vehicle for intravenous injection and oral administration was DMSO and 10% hydroxypropyl β-cyclodextrin in water (DMSO:10% hydroxypropyl β-cyclodextrin in water=5:95). Whole blood samples were collected within 48 hours, and centrifuged at 3000 g for 15 minutes. The supernatant was separated to give plasma samples. 4 times the volume of acetonitrile solution containing internal standard was added to precipitate protein. The resulting mixture was centrifuged and the supernatant was taken out. An equal volume of water was added and the mixture was centrifuged. The supernatant was taken out, and injected as a sample to quantitatively analyze the plasma drug concentration by LC-MS/MS analysis method. The pharmacokinetic parameters, such as peak concentration, time to peak, clearance rate, half-life, area under drug-time curve, bioavailability, etc., were calculated.

[2] = intravenous, iv 1.0, po 2.0 mg/kg
[3] = po, 2 mg/kg, iv 1.0, po 2.0 mg/kg, PO, read-out: Area under drug-time curve AUC0-last PO

T1 sequence (P21453 whole entry): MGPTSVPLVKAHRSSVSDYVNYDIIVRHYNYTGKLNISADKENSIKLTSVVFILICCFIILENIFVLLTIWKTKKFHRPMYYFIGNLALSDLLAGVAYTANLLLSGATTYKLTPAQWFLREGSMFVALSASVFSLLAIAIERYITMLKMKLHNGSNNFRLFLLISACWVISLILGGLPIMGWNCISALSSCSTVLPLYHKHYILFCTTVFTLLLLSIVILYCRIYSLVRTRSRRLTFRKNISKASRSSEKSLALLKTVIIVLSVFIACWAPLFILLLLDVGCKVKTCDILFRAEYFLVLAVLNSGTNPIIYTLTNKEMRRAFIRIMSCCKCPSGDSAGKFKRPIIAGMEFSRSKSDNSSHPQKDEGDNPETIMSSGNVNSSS

Compound: CC(=NOCc1ccc(OC(C)C)c(C(F)(F)F)c1)c1ccc2c(c1)CCC2N1CC(C(=O)O)C1 (single isomer, unassigned) [Compound 32A]
- EC50 (S1P1): 3.84 nM
- Emax (S1P1): 101%
- half-life ([1]; intravenous, 1 mg/kg, iv 1.0 mg/kg only (head prints PO)): 7.5 h
- AUC(0-t) ([1]; iv, 1 mg/kg, iv 1.0 mg/kg, read-out: Area under drug-time curve AUC0-last iv): 6.84 µM·h
- clearance ([1]; iv, 1 mg/kg, iv 1.0 mg/kg): 4.5 mL/min/kg
- Vd ([1]; iv, 1 mg/kg, iv 1.0 mg/kg): 2.78 L/kg

Compound: C/C(=N\OCc1ccc(C2CCCCC2)c(C(F)(F)F)c1)c1ccc2c(c1)CC(NCCC(=O)O)C2 (stereo not drawn) [Compound 1 trifluoroacetate]
- EC50 (S1P1): 41.6 nM
- Emax (S1P1): 88.4%

Compound: C/C(=N\OCc1ccc(C2CCCCC2)c(C(F)(F)F)c1)c1ccc2c(c1)CCC2NCC1(C(=O)O)CC1 (stereo not drawn) [Compound 3 trifluoroacetate]
- EC50 (S1P1): 5.77 nM
- Emax (S1P1): 95%
- AUC(0-t) ([1]; iv 1.4, po 2.7 mg/kg, PO, read-out: Area under drug-time curve AUC0-last PO): 7.05 µM·h
- half-life ([1]; iv 1.4, po 2.7 mg/kg, PO): 11.3 h
- bioavailability ([1]; iv 1.4, po 2.7 mg/kg): 59.3%
- clearance ([1]; iv 1.4, po 2.7 mg/kg): 6.87 mL/min/kg
- Vd ([1]; iv 1.4, po 2.7 mg/kg): 5.47 L/kg
- Cmax ([1]; iv 1.4, po 2.7 mg/kg): 393 nM

Compound: C/C(=N\OCc1ccc(C2CCCCC2)c(C(F)(F)F)c1)c1ccc2c(c1)CCC2N(C)CCC(=O)O (stereo not drawn) [Compound 11 trifluoroacetate]
- EC50 (S1P1): 4.97 nM
- Emax (S1P1): 97.4%
- AUC(0-t) ([1]; iv 1.2, po 2.4 mg/kg, PO, read-out: Area under drug-time curve AUC0-last PO): 11.3 µM·h
- half-life ([1]; iv 1.2, po 2.4 mg/kg, PO): 9.08 h
- bioavailability ([1]; iv 1.2, po 2.4 mg/kg): 64%
- clearance ([1]; iv 1.2, po 2.4 mg/kg): 4.24 mL/min/kg
- Vd ([1]; iv 1.2, po 2.4 mg/kg): 3.32 L/kg
- Cmax ([1]; iv 1.2, po 2.4 mg/kg): 605 nM

Compound: C/C(=N\OCc1ccc(OCC2CC2)c(C(F)(F)F)c1)c1ccc2c(c1)CCC2N(C)CCC(=O)O (stereo not drawn) [Compound 21]
- EC50 (S1P1): 12.3 nM
- Emax (S1P1): 106%
- clearance [1, 2]: 5.43 mL/min/kg
- Vd [1, 2]: 2.05 L/kg
- bioavailability ([1]; iv 1.0, po 2.0 mg/kg): 53.2%
- Cmax ([1]; iv 1.0, po 2.0 mg/kg): 486 nM
- AUC(0-t) [1, 3]: 6.13 µM·h

Compound: C/C(=N\OCc1ccc(OCC(C)C)c(C(F)(F)F)c1)c1ccc2c(c1)CCC2N(C)CCC(=O)O (stereo not drawn) [Compound 22 formate]
- EC50 (S1P1): 19.2 nM
- Emax (S1P1): 107%

Compound: C/C(=N\OCc1ccc(OC(F)F)c(C(F)(F)F)c1)c1ccc2c(c1)CCC2N1CC(C(=O)O)C1 (stereo not drawn) [Compound 28]
- EC50 (S1P1): 23.1 nM
- Emax (S1P1): 121%

Compound: C/C(=N\OCc1ccc(C2CCCCC2)c(C(F)(F)F)c1)c1ccc2c(c1)CCC2N1CC(C(=O)O)C1 (stereo not drawn) [Compound 30]
- EC50 (S1P1): 16.5 nM
- Emax (S1P1): 63.4%
- clearance [1, 2]: 3.93 mL/min/kg
- Vd [1, 2]: 4.19 L/kg
- bioavailability ([1]; iv 1.0, po 2.0 mg/kg): 62.1%
- Cmax ([1]; iv 1.0, po 2.0 mg/kg): 478 nM
- AUC(0-t) [1, 3]: 7.54 µM·h

Compound: C/C(=N\OCc1ccc(OC(C)C)c(C(F)(F)F)c1)c1ccc2c(c1)CCC2N(C)CCC(=O)O (stereo not drawn) [Compound 35]
- EC50 (S1P1): 6.88 nM
- Emax (S1P1): 101%

Other lines, results leading:

- EC50 (S1P1): 57.2 nM
- Emax (S1P1): 84.2%
Compound: C/C(=N\OCc1ccc(OC(C)C)c(C(F)(F)F)c1)c1ccc2c(c1)CCC2NCC(=O)O (stereo not drawn) [Compound 10 hydrochloride]

- EC50 (S1P1): 14.1 nM
- Emax (S1P1): 102%
Compound: C/C(=N\OCc1ccc(OCC(C)C)c(C(F)(F)F)c1)c1ccc2c(c1)CCC2NCC1(C(=O)O)CC1 (stereo not drawn) [Compound 13 hydrochloride]

- EC50 (S1P1): 27.4 nM
- Emax (S1P1): 113%
Compound: C/C(=N\OCc1ccc(OCC2CC2)c(C(F)(F)F)c1)c1ccc2c(c1)CCC2NCC1(C(=O)O)CC1 (stereo not drawn) [Compound 14 hydrochloride]

- EC50 (S1P1): 8.92 nM
- Emax (S1P1): 51%
Compound: C/C(=N\OCc1ccc(C2CCCCC2)c(C(F)(F)F)c1)c1ccc2c(c1)CCC2NCCC(=O)O (stereo not drawn) [Compound 20]

- EC50 (S1P1): 8.62 nM
- Emax (S1P1): 103%
- clearance [1, 2]: 3.68 mL/min/kg
- Vd [1, 2]: 2.24 L/kg
- bioavailability ([1]; iv 1.0, po 2.0 mg/kg): 59.4%
- Cmax ([1]; iv 1.0, po 2.0 mg/kg): 615 nM
- AUC(0-t) [1, 3]: 9.52 µM·h
Compound: C/C(=N\OCc1ccc(OCC(C)C)c(C(F)(F)F)c1)c1ccc2c(c1)CCC2N1CC(C(=O)O)C1 (stereo not drawn) [Compound 29]

- EC50 (S1P1): 10.3 nM
- Emax (S1P1): 105%
- clearance [1, 2]: 2.87 mL/min/kg
- Vd [1, 2]: 0.88 L/kg
- bioavailability ([1]; iv 1.0, po 2.0 mg/kg): 80.9%
- Cmax ([1]; iv 1.0, po 2.0 mg/kg): 1660 nM
- AUC(0-t) [1, 3]: 18.6 µM·h
- half-life ([1]; po, 2 mg/kg, iv 1.0, po 2.0 mg/kg, PO): 4.6 h
Compound: C/C(=N\OCc1ccc(OC2CCCC2)c(C(F)(F)F)c1)c1ccc2c(c1)CCC2N1CC(C(=O)O)C1 (stereo not drawn) [Compound 31]

- EC50 (S1P1): 2.98 nM
- Emax (S1P1): 110%
Compound: C/C(=N\OCc1ccc(OCC2CC2)c(C(F)(F)F)c1)c1ccc2c(c1)CCC2N1CC(C(=O)O)C1 (stereo not drawn) [Compound 33]

From patent US12479794B2, “Acetophenone oxime compound and application thereof” (Medshine Discovery Inc., priority 2020, dated 2025)
